Results: patent US8999956B2, “N-[(het)arylalkyl)] pyrazole(thio)carboxamides and their heterosubstituted analogues” (Bayer Intellectual Property GmbH, priority 2010, dated 2015)
Read-outs that look alike come from different tables or passages of the source.

Columns and labels:
Alternaria solani = test: In vivo preventive test on Alternaria solani (tomato); settings: 500 ppm of active ingredient, evaluated 7 days after inoculation
How it was run: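 Preventive set-up: Alternaria solani spores, as aqueous suspension, applied to young plants one day after spraying. Spray contained active compound formulated with N,N-dimethylformamide and emulsifier, water-diluted to the desired application rate.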

Pyrenophora teres = test: In vivo preventive test on Pyrenophora teres (barley); settings: 500 ppm of active ingredient, evaluated 7-9 days after inoculation
How it was run: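 Preventive test: young barley plants received a water-diluted spray of compound formulated with DMF solvent plus alkylaryl polyglycol ether emulsifier, at the stated rate. Inoculation with an aqueous spore suspension of Pyrenophora teres followed one day after spraying.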

Leptosphaeria nodorum = test: In vivo preventive test on Leptosphaeria nodorum (wheat); settings: 500 ppm of active ingredient, evaluated 7-9 days after inoculation
Protocol: Solvent: 49 parts by weight of N,N-dimethylacetamide Emulsifier: 1 part by weight of alkylaryl polyglycol ether To produce a suitable preparation of active compound, 1 part by weight of active compound is mixed with the stated amounts of solvent and emulsifier, and the concentrate is diluted with water to the desired concentration. To test for preventive activity, young plants are sprayed with a preparation of active compound at the stated rate of application. One day after this treatment, the plants are inoculated with an aqueous spore suspension of Leptosphaeria nodorum.

[1] = tested on: aflatoxines produced by Aspergillus parasiticus; test: microbe, parasite or virus in culture; type: cell-based
Aspergillus parasiticus = test: microbe, parasite or virus in culture; type: cell-based
[2] = log P by HPLC on reversed-phase column (EEC Directive 79/831 Annex V.A8); type: physicochemical
Protocol: In table 1, the log P values were determined in accordance with EEC Directive 79/831 Annex V.A8 by HPLC (High Performance Liquid Chromatography) on a reversed-phase column (C18), using the method described below: Temperature: 40° C.; […]

Sphaerotheca fuliginea = test: In vivo preventive test on Sphaerotheca fuliginea (cucumber); settings: 500 ppm of active ingredient, evaluated 7 days after inoculation
Protocol: Solvent: 49 parts by weight of N,N-dimethylformamide Emulsifier: 1 part by weight of Alkylarylpolyglycolether To produce a suitable preparation of active compound, 1 part by weight of active compound is mixed with the stated amounts of solvent and emulsifier, and the concentrate is diluted with water to the desired concentration. To test for preventive activity, young plants are sprayed with the preparation of active compound at the stated rate of application. One day after this treatment, the plants are inoculated with an aqueous spore suspension of Sphaerotheca fuliginea. Then the plants are placed in a greenhouse at approximately 23° C. and a relative atmospheric humidity of approximately 70%.

Puccinia triticina = test: In vivo preventive test on Puccinia triticina (wheat); settings: Table K, 500 ppm of active ingredient, evaluated 8 days after inoculation

| SMILES | Efficacy (Alternaria solani) [%] | Efficacy (Pyrenophora teres) [%] | Efficacy (Leptosphaeria nodorum) [%] | % Inhibition of Aflatoxin at 50 μM [1] [%] | % Inhibition of fungal growth at 50 μM (Aspergillus parasiticus) [%] | logP [2] | Efficacy (Sphaerotheca fuliginea) [%] | % Inhibition of fungal growth at 50 μM (Aspergillus parasiticus; 50 µM) [%] | Efficacy (Puccinia triticina) [%] | % Inhibition of Aflatoxin at 50 μM ([1]; 50 µM) [%] |
| --- | --- | --- | --- | --- | --- | --- | --- | --- | --- | --- |
| Cn1nc(C(F)F)c(C(=O)N(C[Si](C)(C)Cc2ccccc2Cl)C2CC2)c1F [Example 295] | 100 | 100 | 100 | 100 | 100 | 4.41 |  |  |  |  |
| Cn1nc(C(F)F)c(C(=O)N(C[Si](C)(C)Cc2cccc(Cl)c2)C2CC2)c1Cl [Example 290] | 95 | 100 | 80 | 82 | 72 | 4.59 |  |  |  |  |
| CC(C)CC(C)C1CCCC1NC(=O)c1c(C(F)F)nn(C)c1F (single isomer, unassigned) [Example 318] | 90 | 100 | 70 | 100 |  | 4.27 isomer C | 93 | 89 |  |  |
| CC(CCc1ccc(Cl)c(Cl)c1)N(C(=O)c1c(C(F)F)nn(C)c1Cl)C1CC1 (racemic) [Example 130] | 95 | 95 | 90 |  |  | 4.62 |  |  | 70 |  |
| Cn1nc(C(F)F)c(C(=O)N(C[Si](C)(C)Cc2ccccc2Cl)C2CC2)c1Cl [Example 294] | 95 | 95 | 70 | 100 | 84 | 4.56 |  |  |  |  |
| CC(CCc1c(Cl)cc(Cl)cc1Cl)N(C(=S)c1c(C(F)F)nn(C)c1F)C1CC1 (centres unmarked) [Example 219] | 95 | 100 | 90 | 81 | 71 | 5.81 | 100 |  |  |  |
| Cn1nc(C(F)F)c(C(=O)NC2CCCCC2Oc2ccccc2)c1F (centres unmarked) [Example 245] | 90 | 78 | 90 |  |  | 3.52 |  |  | 70 |  |
| Cn1nc(C(F)F)c(C(=O)N(C[Si](C)(C)Cc2ccc(Cl)cc2Cl)C2CC2)c1F [Example 298] | 100 | 100 | 95 | 100 | 100 | 5.03 | 85 |  |  |  |
| Cn1nc(C(F)F)c(C(=S)N(C[Si](C)(C)Cc2ccccc2Cl)C2CC2)c1F [Example 296] | 80 | 100 | 95 |  |  | 5.00 | 70 |  |  |  |
| CC(CC1CCCCC1NC(=O)c1c(C(F)F)nn(C)c1Cl)C1CC1 (centres unmarked) [Example 328] | 95 | 95 | 80 | 100 | 91 | 4.28 | 100 |  |  |  |
| Cc1ccnc(OCC(C)NC(=O)c2c(C(F)F)nn(C)c2Cl)c1 (centres unmarked) [Example 37] | 80 | 100 | 90 |  |  | 2.13 |  |  |  |  |
| CC(CNC(=O)c1c(C(F)F)nn(C)c1F)Cc1c(F)cccc1F (centres unmarked) [Example 157] | 80 | 100 | 80 |  |  | 3.02 |  |  |  |  |
| Cn1nc(C(F)F)c(C(=O)N(C2CC2)C2CCCCC2Oc2ccccc2)c1F (centres unmarked) [Example 247] |  | 100 | 95 |  |  | 4.21 | 100 | 78 | 100 | 93 |
| Cn1nc(C(F)F)c(C(=O)N(C[Si](C)(C)Cc2cc(Cl)cc(Cl)c2)C2CC2)c1F [Example 293] |  |  | 94 | 100 | 100 | 4.98 |  |  |  |  |
